Test results as given in patent publication US20240139236A1, “COPPER HISTIDINATE COMPOSITIONS AND USES THEREOF” (Cyprium Therapeutics, Inc., priority 2021, published 2024).

Assays:
[1] = tested on: classic Menkes disease patients; test: Subcutaneous copper histidinate treatment of Menkes patients (serum copper, renal safety monitoring); type: in vivo, human; details: 1450 μg SC BID younger than 12 months, QD older than 12 months
Excerpt: The purpose of this study was to allow currently enrolled participants to complete a three-year course of subcutaneous copper histidinate treatment under a previous protocol. It was hypothesized that subcutaneous injections of this drug will raise serum copper levels and ceruloplasmin levels in enrolled participants, improve neurodevelopmental and neurological outcomes, and reduce mortality compared to untreated affected subjects. The broad overall hypothesis of this treatment study is that subcutaneous copper histidinate injections will normalize circulating copper levels and provide health benefits to individuals with copper deficiency due to genetic abnormalities such as classic Menkes disease or which is unexplained. The trial represents an open-label design in which all enrolled subjects receive subcutaneous injections of copper histidinate. Immediate potential benefits of Copper Histidinate treatment in classic Menkes disease include protection against seizure activity and accrual of neurodevelopmental skills in an age-appropriate fashion. Long-term potential benefits include enhanced lifespan and quality of life, as noted in other subjects with classic Menkes disease treated with Copper Histidinate. […]

[2] = tested on: classic Menkes disease patients; details: cited from earlier work
Menkes disease subjects = test: Long term follow up of Menkes disease patients treated with copper histidinate (survival); type: in vivo, human; details: early treatment vs untreated historical controls
Protocol: During the study patients were administered does of copper histidinate as follows: 1450 μg subcutaneous BID in infants up to 12 months of age, and 1450 μg subcutaneous QD for infants and children older than 12 months.
This study was designed as a long term follow up on patients previously identified and/or enrolled in previous studies for the treatment of Menkes disease with copper histidinate and untreated patients to determine survival, neurological development, quality of life status and adverse events. This study followed the patients from the previous examples for long term follow up.
Patients previously enrolled in clinical trials for the treatment of Menkes disease with copper histidinate were assessed for survival status, neurological development status and quality of life. No drug was be administered during this study.

N[C@@H](Cc1cnc[nH]1)C(=O)[O-].N[C@@H](Cc1cnc[nH]1)C(=O)[O-].[Cu+2] [copper histidinate, (2S)-2-amino-3-(1H-imidazol-5-yl) propanoic acid, Copper]
serum copper levels under the standard dosing regimen [1]: maintains serum copper levels in the normal range
renal tubular injury caused by copper histidinate [2]: reversible
reduction in the risk of death (Menkes disease subjects): ~80%
hazard ratio (risk of death) (Menkes disease subjects; p<0.00001): 0.21
